In ChEMBL document CHEMBL4311969, “Polygala tenuifolia-Acori tatarinowii herbal pair as an inspiration for substituted cinnamic α-asaronol esters: Design, synthesis, anticonvulsant activity, and inhibition of lactate dehydrogenase study” (Eur J Med Chem, 2019):
Values joined by “and” are separate entries in the source; they are usually repeats but may differ in a detail not shown here. Identical values can stand only once. Active and inactive are the calls of the source. The rule behind the calls is not given here.

Key:
Mus musculus [1] = assay: Anticonvulsant activity in Kunming mouse assessed as reduction in ScPTZ-induced seizure at 100 mg/kg, ip administered 0.5 hrs before ScPTZ stimulation relative to control; format: functional; set-up: scale not given: the % may be the effect or the level left
[2] = Protective index, ratio of TD50 for neurotoxicity against ip dosed Kunming mouse assessed as time remained in rod measured at 0.5 hrs by rotarod test to ED50 for anticonvulsant activity in ip dosed Kunming mouse assessed as reduction in ScPTZ-induced seizure administered 0.5 hrs before ScPTZ stimulation; format: toxicity, organism-based; details: in vivo, read-out: PI
Mus musculus [3] = assay: Anticonvulsant activity in Kunming mouse assessed as reduction in ScPTZ-induced seizure at 100 mg/kg, ip administered 0.25 to 2 hrs before ScPTZ stimulation relative to control; format: functional
[4] = Protective index, ratio of TD50 for neurotoxicity against ip dosed Kunming mouse assessed as time remained in rod measured at 0.5 hrs by rotarod test to ED50 for anticonvulsant activity in ip dosed Kunming mouse assessed as MES-induced hind limb extension administered 0.5 hrs; format: toxicity, organism-based; details: in vivo, read-out: PI
Mus musculus [5] = assay: Anticonvulsant activity in Kunming mouse assessed as MES-induced hind limb extension at 50 mg/kg, ip administered 0.5 and 2 hrs before MES stimulation relative to control; format: functional
Mus musculus [6] = assay: Anticonvulsant activity in Kunming mouse assessed as reduction in Sc3-MP-induced clonic seizure rate at 300 mg/kg, ip administered 0.5 hrs before Sc3-MP stimulation relative to control; format: functional; set-up: scale not given: the % may be the effect or the level left
Mus musculus [7] = assay: Anticonvulsant activity in Kunming mouse assessed as reduction in ScPTZ-induced clonic seizure at 300 mg/kg, ip administered 0.5 hrs before ScPTZ stimulation relative to control; format: functional; set-up: scale not given: the % may be the effect or the level left
Mus musculus [8] = assay: Anticonvulsant activity in ip dosed Kunming mouse assessed as MES-induced hind limb extension administered 0.5 hrs before MES stimulation; format: functional
Mus musculus [9] = assay: Anticonvulsant activity in Kunming mouse assessed as MES-induced hind limb extension at 100 mg/kg, ip administered 3 hrs before MES stimulation; format: functional, organism-based
Mus musculus [10] = assay: Anticonvulsant activity in ip dosed Kunming mouse assessed as reduction in ScPTZ-induced seizure administered 0.5 hrs before ScPTZ stimulation; format: functional
Mus musculus [11] = assay: Anticonvulsant activity in Kunming mouse assessed as reduction in ScPTZ-induced tonic seizure rate at 300 mg/kg, ip administered 0.5 hrs before ScPTZ stimulation relative to control; format: functional; set-up: scale not given: the % may be the effect or the level left
Homo sapiens [12] = species on record: Homo sapiens; assay: Inhibition of human LDH5 at 0.5 mM using sodium pyruvate as substrate measured for 60 sec for every 5 mins by LC/MS-MS analysis
[13] = Neurotoxicity against ip dosed Kunming mouse assessed as time remained in rod measured at 0.5 hrs by rotarod test; format: toxicity, organism-based; details: in vivo
Homo sapiens [14] = species on record: Homo sapiens; assay: Inhibition of human LDH1 at 0.5 mM using sodium pyruvate as substrate measured for 60 sec for every 5 mins by LC/MS-MS analysis
Mus musculus [15] = assay: Anticonvulsant activity in Kunming mouse assessed as MES-induced hind limb extension at 50 mg/kg, ip administered 0.5 to 4 hrs before MES stimulation relative to control; format: functional
[16] = Protective index, ratio of TD50 for neurotoxicity against ip dosed Kunming mouse assessed as time remained in rod measured at 0.5 hrs by rotarod test to ED50 for […] activity in ip dosed Kunming mouse assessed as reduction in formalin-induced paw licking administered 0.5 hrs before formalin stimulation; format: toxicity, organism-based; details: in vivo, read-out: PI
Mus musculus [17] = assay: Anticonvulsant activity in Kunming mouse assessed as reduction in ScPTZ-induced tonic seizure rate at 100 mg/kg, ip administered 0.5 hrs before ScPTZ stimulation relative to control; format: functional; set-up: scale not given: the % may be the effect or the level left
Mus musculus [18] = assay: Anticonvulsant activity in Kunming mouse assessed as reduction in Sc3-MP-induced seizure ip dosed measured at 0.5 hrs before Sc3-MP stimulation; format: functional
Mus musculus [19] = assay: Anticonvulsant activity in Kunming mouse assessed as reduction in ScPTZ-induced seizure at 100 mg/kg, ip administered 1 hr relative to control; format: functional; set-up: scale not given: the % may be the effect or the level left
Mus musculus [20] = assay: Anticonvulsant activity in Kunming mouse assessed as MES-induced hind limb extension at 100 mg/kg, ip administered 0. 5 to 2 hrs before MES stimulation; format: functional, organism-based
Mus musculus [21] = assay: Anticonvulsant activity in Kunming mouse assessed as MES-induced hind limb extension at 100 mg/kg, ip administered 0. 5 hrs before MES stimulation relative to control; format: functional
Mus musculus [22] = assay: […] activity in ip dosed Kunming mouse assessed as reduction in formalin-induced paw licking administered 0.5 hrs before formalin stimulation; format: functional
Mus musculus [23] = assay: Anticonvulsant activity in Kunming mouse assessed as reduction in Sc3-MP-induced tonic seizure rate at 300 mg/kg, ip administered 0.5 hrs before Sc3-MP stimulation relative to control; format: functional; set-up: scale not given: the % may be the effect or the level left
Mus musculus [24] = assay: Anticonvulsant activity in Kunming mouse assessed as reduction in ScPTZ-induced seizure at 300 mg/kg, ip administered 0.25 to 2 hrs before ScPTZ stimulation relative to control; format: functional; set-up: scale not given: the % may be the effect or the level left
[25] = Protective index, ratio of TD50 for neurotoxicity against ip dosed Kunming mouse assessed as time remained in rod measured at 0.5 hrs by rotarod test to ED50 for anticonvulsant activity in ip dosed Kunming mouse assessed as reduction in Sc3-MP-induced seizure administered 0.5 hrs before Sc3-MP stimulation; format: toxicity, organism-based; details: in vivo, read-out: PI
Homo sapiens [26] = species on record: Homo sapiens; assay: Inhibition of human LDH5 at 0.5 mM using sodium pyruvate as substrate by UV-VIS spectrophotometry method relative to control
Mus musculus [27] = assay: Anticonvulsant activity in Kunming mouse assessed as MES-induced hind limb extension at 100 mg/kg, ip administered 4 hrs before MES stimulation; format: functional, organism-based
[28] = Neurotoxicity against Kunming mouse assessed as time remained in rod at 100 mg/kg, ip administered 0.5 to 2 hrs by rotarod test; format: toxicity, organism-based; details: in vivo
Homo sapiens [29] = species on record: Homo sapiens; assay: Inhibition of human LDH1 at 0.5 mM using sodium pyruvate as substrate by UV-VIS spectrophotometry method relative to control
Mus musculus [30] = assay: Anticonvulsant activity in Kunming mouse assessed as MES-induced hind limb extension at 100 mg/kg, ip administered 0. 5 to 4 hrs before MES stimulation relative to control; format: functional
Mus musculus [31] = assay: Anticonvulsant activity in Kunming mouse assessed as reduction in ScPTZ-induced clonic seizure at 100 mg/kg, ip administered 0.5 hrs before ScPTZ stimulation relative to control; format: functional; set-up: scale not given: the % may be the effect or the level left
Homo sapiens [32] = species on record: Homo sapiens; assay: Inhibition of human LDH5 assessed as remaining activity at 0.5 mM using sodium pyruvate as substrate by UV-VIS spectrophotometry method relative to control
Homo sapiens [33] = species on record: Homo sapiens; assay: Inhibition of human LDH1 assessed as remaining activity at 0.5 mM using sodium pyruvate as substrate by UV-VIS spectrophotometry method relative to control
Mus musculus [34] = assay: Anticonvulsant activity in Kunming mouse assessed as reduction in Sc3-MP-induced seizure at 300 mg/kg, ip administered 0.25 to 2 hrs before Sc3-MP stimulation relative to control; format: functional; set-up: scale not given: the % may be the effect or the level left

Structure (SMILES)	selectivity ratio at 0.5 h [2]	Activity (Mus musculus [3])	selectivity ratio at 0.5 h [4]	Activity (Mus musculus [6])	Activity (Mus musculus [7])	ED50 (Mus musculus [8])	ED50 (Mus musculus [10])	Activity (Mus musculus [11])	TD50 at 0.5 h [13]	selectivity ratio at 0.5 h [16]	Activity (Mus musculus [17])	ED50 (Mus musculus [18])	Activity (Mus musculus [20])	ED50 (Mus musculus [22])	Activity (Mus musculus [23])	Activity (Mus musculus [24])	selectivity ratio at 0.5 h [25]	Activity [28]	Activity (Mus musculus [30])	Activity (Mus musculus [31])	further results
COc1cc(OC)c(OC)cc1/C=C/COC(=O)/C=C/c1ccc(F)cc1	> 5.9	inactive	> 28.9	100%	100%	92.9 µmol/kg and 34.6 mg/kg	167 mg/kg and 449 µmol/kg	0%	> 2690 µmol/kg and > 1000 mg/kg	23	100%	> 300 mg/kg and > 806 µmol/kg	Active	43.4 mg/kg and 116 µmol/kg	75%	50%	5	Non-Toxic	25 - 100%	100%	Activity (Mus musculus [1]): 100%; Activity (Mus musculus [5]): 75%; Activity (Mus musculus [9]): Active; inhibition (Homo sapiens [12]): 5%; inhibition (Homo sapiens [14]): 5%; Activity (Mus musculus [15]): 50%; Activity (Mus musculus [19]): 75%; Activity (Mus musculus [21]): 100%; inhibition (Homo sapiens [26]): < 9%; Activity (Mus musculus [27]): Active; inhibition (Homo sapiens [29]): < 5%
CCCC(CCC)C(=O)O																					Activity (Homo sapiens [32]): 100%; Activity (Homo sapiens [33]): 100%
COc1ccc(/C=C/C(=O)OC/C=C/c2cc(OC)c(OC)cc2OC)cc1	> 4.1	inactive	> 14.2	100%	100%	70.6 mg/kg and 184 µmol/kg	244 mg/kg and 634 µmol/kg	0%	> 1000 mg/kg and > 2600 µmol/kg	> 8.2	100%	> 300 mg/kg and > 780 µmol/kg	Active	122 mg/kg and 317 µmol/kg	100%	50%	3.3	Non-Toxic	25 - 100%	100%	Activity (Mus musculus [1]): 100%; Activity (Mus musculus [34]): 0%; Activity (Mus musculus [9]): Active; Activity (Mus musculus [15]): 50%; Activity (Mus musculus [19]): 75%; inhibition (Homo sapiens [26]): inactive; inhibition (Homo sapiens [29]): inactive
NC(=O)N1c2ccccc2C=Cc2ccccc21 [CARBAMAZEPINE]						18.1 mg/kg and 76.5 µmol/kg	> 100 mg/kg and > 423 µmol/kg		303 µmol/kg												Activity (Homo sapiens [32]): 100%; Activity (Homo sapiens [33]): 100%
COc1cc(OC)c(OC)cc1/C=C/COC(=O)/C=C/c1cc(OC)c(OC)cc1OC	5	inactive	> 13.6	100%	100%	165 µmol/kg and 73.5 mg/kg	> 200 mg/kg and 450 µmol/kg to 675 µmol/kg	25%	> 2250 µmol/kg and > 1000 mg/kg	12.5	100%	> 300 mg/kg and > 675 µmol/kg	Active	180 to 225 µmol/kg	75%	50%	3.3	Non-Toxic	25 - 100%	100%	Activity (Mus musculus [34]): 0%; Activity (Mus musculus [5]): inactive
